Read-outs that look alike come from different tables or passages of the source.
Legend:
[1] = biological target: T1, CYP2A6 (Homo sapiens, UniProt P11509); assay: CYP2A6-catalyzed coumarin 7-hydroxylase inhibition in pooled human liver microsomes
T1 sequence (P11509 1-494): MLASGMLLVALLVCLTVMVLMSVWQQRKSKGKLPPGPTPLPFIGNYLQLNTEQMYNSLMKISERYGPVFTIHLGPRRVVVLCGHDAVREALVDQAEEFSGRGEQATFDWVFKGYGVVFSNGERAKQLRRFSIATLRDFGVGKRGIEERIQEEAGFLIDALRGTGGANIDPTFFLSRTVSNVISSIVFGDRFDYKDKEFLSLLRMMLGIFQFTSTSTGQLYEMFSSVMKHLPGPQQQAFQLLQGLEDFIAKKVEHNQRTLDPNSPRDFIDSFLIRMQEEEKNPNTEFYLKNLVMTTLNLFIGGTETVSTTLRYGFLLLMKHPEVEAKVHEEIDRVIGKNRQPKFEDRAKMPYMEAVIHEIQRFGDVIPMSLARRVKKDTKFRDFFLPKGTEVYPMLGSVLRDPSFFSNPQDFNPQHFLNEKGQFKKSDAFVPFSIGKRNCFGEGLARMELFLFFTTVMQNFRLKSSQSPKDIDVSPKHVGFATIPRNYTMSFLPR
Experimental: (§1) The degrees of inhibition (the IC50 values) of aschantin toward CYP1A2, CYP2A6, CYP2C8, CYP2C9, CYP2C19, CYP2D6, and CYP3A4 were evaluated using pooled human liver microsomes employing a cocktail of CYP substrates and liquid chromatography-tandem mass spectrometry (LC-MS/MS). […] After 3 min pre-incubation at 37 °C, the reactions were initiated by addition of NADPH and incubation proceeded for 15 min at 37 °C in a shaking water bath. The reaction was stopped by placing the tubes on ice and adding 100 µL amounts of ice-cold methanol containing internal standards (^13C2,^15N-acetaminophen for acetaminophen and N-desethylamodiaquine; d9-1′-hydroxybufuralol for 4′-hydroxydiclofenac; and 7-hydroxycoumarin, 4′-hydroxy-mephenytoin, 1′-hydroxybufuralol, and 1′-hydroxymidazolam). Then the incubation mixtures were centrifuged at 13,000× g for 4 min at 4 °C. All assays were performed in triplicate and the average values were used in calculations.
(§2) To this end, we employed a tandem mass spectrometer (TSQ Quantum Access, Thermo Scientific, San Jose, CA, USA) coupled to a Nanospace SI-2 LC system (Shiseido, Tokyo, Japan). The column and autosampler temperatures were 50 °C and 6 °C, respectively. The mass spectrometer was equipped with an electrospray ionization (ESI) source and was operated in positive ion mode. The ESI source settings for metabolite ionization were as follows: capillary voltage, 4200 V; vaporizer temperature, 350 °C; capillary temperature 330 °C; sheath gas pressure, 35 psi; and auxiliary gas pressure, 15 psi. […] Analytical data were processed using Xcalibur® software (Thermo Scientific).
(§3) The apparent kinetic inhibitory potentials (the Ki values) were estimated from the fitted curves using Enzyme Kinetics version 1.1 (Systat Software Inc.).

[2] = biological target: T2, CYP1A2 (Homo sapiens, UniProt P05177); assay: CYP1A2-catalyzed phenacetin O-de-ethylase inhibition in pooled human liver microsomes
T2 sequence (P05177 1-516): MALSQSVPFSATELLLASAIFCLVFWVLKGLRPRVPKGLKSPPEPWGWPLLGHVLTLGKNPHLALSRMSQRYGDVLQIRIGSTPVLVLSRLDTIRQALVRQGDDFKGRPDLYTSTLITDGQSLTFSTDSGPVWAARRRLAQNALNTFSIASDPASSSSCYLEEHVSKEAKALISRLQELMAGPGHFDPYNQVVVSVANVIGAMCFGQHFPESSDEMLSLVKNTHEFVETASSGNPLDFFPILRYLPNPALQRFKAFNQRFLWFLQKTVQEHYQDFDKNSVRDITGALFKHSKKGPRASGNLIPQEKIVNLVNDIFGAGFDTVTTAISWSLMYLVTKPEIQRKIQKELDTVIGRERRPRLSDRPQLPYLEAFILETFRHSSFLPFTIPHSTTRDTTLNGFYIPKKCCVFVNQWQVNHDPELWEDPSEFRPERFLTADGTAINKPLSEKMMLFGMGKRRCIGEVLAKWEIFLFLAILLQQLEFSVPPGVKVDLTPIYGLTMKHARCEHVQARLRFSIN
Experimental: as §1, §2, §3

[3] = biological target: T3, CYP2C8 (Homo sapiens, UniProt P10632); assay: CYP2C8-catalyzed amodiaquine N-de-ethylase inhibition in pooled human liver microsomes; conditions: for IC50: CYP2C8 amodiaquine N-de-ethylase, 2.0 µM amodiaquine
T3 sequence (P10632 1-490): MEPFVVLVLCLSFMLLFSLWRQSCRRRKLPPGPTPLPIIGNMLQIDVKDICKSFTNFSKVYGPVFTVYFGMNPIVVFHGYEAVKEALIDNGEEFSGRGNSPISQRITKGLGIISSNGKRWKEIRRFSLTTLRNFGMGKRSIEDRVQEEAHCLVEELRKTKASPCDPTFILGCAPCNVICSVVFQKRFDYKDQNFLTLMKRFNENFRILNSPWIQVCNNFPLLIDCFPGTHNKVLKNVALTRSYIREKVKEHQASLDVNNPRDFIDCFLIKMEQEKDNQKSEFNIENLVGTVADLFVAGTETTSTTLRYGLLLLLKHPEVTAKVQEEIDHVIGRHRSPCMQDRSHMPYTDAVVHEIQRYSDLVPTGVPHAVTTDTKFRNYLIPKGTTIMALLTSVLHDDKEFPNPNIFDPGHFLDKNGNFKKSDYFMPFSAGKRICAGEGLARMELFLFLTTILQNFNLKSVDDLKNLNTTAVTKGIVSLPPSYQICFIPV
Experimental: as §1, §2, §3

[4] = aschantin at 100 µM, human liver microsomes

- IC50 [1]: > 100 µM
- inhibition of CYP2A6-mediated coumarin 7-hydroxylation [1, 4]: negligibly inhibited
- IC50 ([1]; read-out: IC50 With Pre-incubation, CYP2A6 coumarin 7-hydroxylase, 2.5 µM coumarin, 30 min pre-incubation with microsomes and NADPH): > 100 µM
- IC50 [2]: > 100 µM
- inhibition of CYP1A2-mediated phenacetin O-de-ethylation [2, 4]: negligibly inhibited
- IC50 ([2]; read-out: IC50 With Pre-incubation, CYP1A2 phenacetin O-de-ethylase, 50 µM phenacetin, 30 min pre-incubation with microsomes and NADPH): > 100 µM
- IC50 ([3]; IC50 No Pre-incubation, pooled human liver microsomes, no pre-incubation): 27.8 µM
- IC50 ([3]; IC50 With Pre-incubation, 30 min pre-incubation with microsomes and NADPH): 5.3 µM
- IC50 shift at 0.5 h ([3]; human, pooled human liver microsomes, pH 7.4, probe amodiaquine (2.0 µM), N-de-ethylation): > 2.5
SMILES: COc1cc([C@H]2OC[C@H]3[C@@H]2CO[C@@H]3c2ccc3c(c2)OCO3)cc(OC)c1OC [Aschantin]

— publication PMC6273138, “Inhibitory Effects of Aschantin on Cytochrome P450 and Uridine 5′-diphospho-glucuronosyltransferase Enzyme Activities in Human Liver Microsomes” (Molecules, 2016)
